Source: patent US20240018125A1, “CYCLIC ISOTHIOUREA DERIVATIVES AS CXCR4 MODULATORS” (ERMIUM THERAPEUTICS, priority 2020, published 2024)
Counter-ions that a name gives are not always drawn.

Target: T1, human CXCR4 (hCXCR4) receptor (Homo sapiens, UniProt P61073)
T1 construct: expressed in transfected cells; host or cells: HEK-293 T cells, transient co-transfection with polyethylenimine
Assay: BRET assay of antagonist activity on the CXCR4-CXCL12 signaling pathway (Gαi2 recruitment) in HEK-293 T cells
Type: cell-based
Details: HEK-293 T cells with hCXCR4, Gαi2 and BRET biosensors; 10 min with compound, then EC80 CXCL12
Experimental: Examples of the present invention were tested for their antagonist activity on human CXCR4 (hCXCR4) receptor transiently over-expressed in HEK-293 T cells. Compounds exert antagonist activity if they decrease the action of CXCL12 on the receptor.
The specific effector (luciferase tagged: BRET donor) recruited at the membrane will be in close proximity to a plasma membrane anchor (GFP tagged: BRET acceptor) to induce a BRET signal (Hamdan et a1, 2006, Chapter 5, Current Protocols in Neuroscience).
HEK-293 T cells are maintained in Dulbecco's Modified Eagle's Medium supplemented with 10% Foetal Calf Serum, 1% Penicillin/Streptomycin at 37° C./5% CO2. Cells are co-transfected using polyethylenimine (25 kDa linear) with several DNA plasmids encoding: hCXCR4; Gai2; an intracellular effector fused to luciferase (BRET donor); a plasma membrane effector fused to GFP (BRET acceptor). After transfection, cells are cultured for 48 h at 37° C./5% CO2. On the day of the assay, cells are detached using trypsin 0.05%, resuspended in assay buffer (1.8 mM CaCl2, 1 mM MgCl2, 2.7 mM KCl, 137 mM NaCl, 0.4 mM NaH2PO4, 5.5 mM D-Glucose, 11.9 mM NaHCO3, 25 mM Hepes) and seeded in 384 well plate at a density of 20,000 cells per well. Then, plates are equilibrated 3.5 h at 37° C. before adding compounds. Compounds and luciferase substrate are added to the cells using an automated device (Freedom Evo®, Tecan) and BRET readings are collected on EnVision (PerkinElmer) with specific filters (410 nm BW 80 nm, 515 nm BW 30 nm).
Cells are first incubated for 10 minutes with the compound alone. Then, cells are stimulated by an EC80 CXCL12 concentration for additional 10 minutes and luminescence is recorded. EC80 CXCL12 concentration is the concentration giving 80% of the maximal CXCL12 response. Antagonist activity is evaluated in comparison to basal signals evoked by EC80 CXCL12 alone.
For IC50 determination, a dose-response test is performed using 20 concentrations (ranging over 6 logs) of each compound. Dose-response curves are fitted using the sigmoidal dose-response (variable slope) analysis in GraphPad Prism software (GraphPad Software) and IC50 of antagonist activity is calculated. Dose-response experiments are performed in duplicate, in two independent experiments.
HEK-293 T cells were transfected to allow measuring the recruitment of Gai2 proteins involved in intracellular signaling by human CXCR4 receptor (hCXCR4) via the BRET technology. Cells were then incubated with various concentrations of examples of the invention before stimulation with an EC80 concentration of CXCL12.

T1 sequence (P61073 whole entry): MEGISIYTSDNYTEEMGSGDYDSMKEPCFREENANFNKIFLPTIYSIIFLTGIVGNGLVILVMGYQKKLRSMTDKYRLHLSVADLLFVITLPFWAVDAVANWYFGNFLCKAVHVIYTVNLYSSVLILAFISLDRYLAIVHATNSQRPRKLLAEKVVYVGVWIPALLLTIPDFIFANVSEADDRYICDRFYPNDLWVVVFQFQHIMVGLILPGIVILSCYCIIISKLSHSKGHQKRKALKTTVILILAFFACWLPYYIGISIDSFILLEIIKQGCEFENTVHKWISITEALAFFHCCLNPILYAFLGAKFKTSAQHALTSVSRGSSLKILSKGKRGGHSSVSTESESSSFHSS

Q: Which IC50 does the source give for `Clc1ccc2c(c1)CN=C(SCCCCN1CCCC1)N2` [Example 60, 6-chloro-2-((4-(pyrrolidin-1-yl)butyl)thio)-1,4-dihydroquinazoline dihydrochloride] here?
A: Its IC50 is at least 15 µM.
